Where “and” joins values, the source holds several entries; their conditions need not be identical. Equal values may be shown once. Toxic doses and inconclusive results are not listed. Cut-off read from the data, not from the text of the source: active = T/C of 150% or more; inactive = T/C below 125%.
Test system: L1210 leukemia ip in BDF1 mice, survival T/C
Assay: NCI In Vivo Anticancer Drug Screen. Data for tumor model L1210 Leukemia (intraperitoneal) in B6D2F1 (BDF1) mice
Details: endpoint: mean survival time, higher = longer survival
Outline: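 Tumor cells were implanted, animals were treated, and survival was followed. The result divides the treated measurement by the vehicle-control measurement.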

[1] = dose: 100.0 mg/kg/injection, schedule: Q04DX003 (ip), vehicle: Klucel (hydroxypropylcellulose) (HPC)
[2] = dose: 100.0 mg/kg/injection, schedule: Q01DX009 (ip), vehicle: Klucel (hydroxypropylcellulose) (HPC)
[3] = dose: 200.0 mg/kg/injection, schedule: Q01DX009 (ip), vehicle: Klucel (hydroxypropylcellulose) (HPC)
[4] = dose: 200.0 mg/kg/injection, schedule: Q04DX003 (ip), vehicle: Klucel (hydroxypropylcellulose) (HPC)
[5] = dose: 400.0 mg/kg/injection, schedule: Q01DX009 (ip), vehicle: Klucel (hydroxypropylcellulose) (HPC)
[6] = dose: 400.0 mg/kg/injection, schedule: Q04DX003 (ip), vehicle: Klucel (hydroxypropylcellulose) (HPC)
[7] = dose: 50.0 mg/kg/injection, schedule: Q04DX002 (ip), vehicle: Klucel (hydroxypropylcellulose) (HPC)
[8] = dose: 100.0 mg/kg/injection, schedule: Q04DX002 (ip), vehicle: Klucel (hydroxypropylcellulose) (HPC)
[9] = dose: 25.0 mg/kg/injection, schedule: Q01DX009 (ip), vehicle: saline
[10] = dose: 50.0 mg/kg/injection, schedule: Q01DX009 (ip), vehicle: saline
[11] = dose: 100.0 mg/kg/injection, schedule: Q01DX009 (ip), vehicle: saline
[12] = dose: 200.0 mg/kg/injection, schedule: Q01DX009 (ip), vehicle: saline
[13] = dose: 100.0 mg/kg/injection, schedule: Q04DX003 (ip), vehicle: saline with Tween-80
[14] = dose: 200.0 mg/kg/injection, schedule: Q04DX003 (ip), vehicle: saline with Tween-80
[15] = dose: 400.0 mg/kg/injection, schedule: Q04DX003 (ip), vehicle: saline with Tween-80
[16] = dose: 100.0 mg/kg/injection, schedule: Q01DX001 (ip), vehicle: saline
[17] = dose: 200.0 mg/kg/injection, schedule: Q01DX001 (ip), vehicle: saline
[18] = dose: 400.0 mg/kg/injection, schedule: Q01DX001 (ip), vehicle: saline
[19] = dose: 75.0 mg/kg/injection, schedule: Q01DX001 (ip), vehicle: other

Measured: T/C

CCCCNc1c(C2=NCCN2)cnc2c1cnn2CC
inactive: dose: 25.0 mg/kg/injection, schedule: Q04DX003 (ip), vehicle: Klucel (hydroxypropylcellulose) (HPC) 92 % of control | dose: 50.0 mg/kg/injection, schedule: Q04DX003 (ip), vehicle: Klucel (hydroxypropylcellulose) (HPC) 99 % of control | [1] 90 % of control and 92 % of control

CCC(C)C1NC(=O)C(NC(=O)c2c3nc4c(C(=O)NC5C(=O)NC(C(C)CC)C(=O)N6CCCC6C(=O)N(C)CC(=O)N(C)C(C(C)C)C(=O)OC5C)cc([N+](=O)[O-])c(C)c4oc-3c(C)c(=O)c2N)C(C)OC(=O)C(C(C)C)N(C)C(=O)CN(C)C(=O)C2CCCN2C1=O (stereo not drawn)
inactive: dose: 75.0 micrograms/kg/injection, schedule: Q01DX009 (ip), vehicle: saline + alcohol 111 % of control | dose: 100.0 micrograms/kg/injection, schedule: Q01DX009 (ip), vehicle: saline + alcohol 112 % of control | dose: 200.0 micrograms/kg/injection, schedule: Q01DX009 (ip), vehicle: saline + alcohol 122 % of control | dose: 300.0 micrograms/kg/injection, schedule: Q04DX003 (ip), vehicle: saline + alcohol 107 % of control | dose: 400.0 micrograms/kg/injection, schedule: Q04DX003 (ip), vehicle: saline + alcohol 108 % of control | dose: 600.0 micrograms/kg/injection, schedule: Q04DX003 (ip), vehicle: saline + alcohol 119 % of control

Nc1nc(N)nc(-c2ccccc2NC(=O)c2ccccc2[N+](=O)[O-])n1
inactive: [2] 91 % of control | [1] 101 % of control | [3] 96 % of control | [4] 105 % of control | [5] 90 % of control | [6] 100 % of control

Cc1ccc(NCC(=O)NN)cc1F
inactive: dose: 25.0 mg/kg/injection, schedule: Q04DX002 (ip), vehicle: Klucel (hydroxypropylcellulose) (HPC) 102 % of control | [7] 109 % of control | [8] 109 % of control and 112 % of control

Cc1ccc(NC(=O)COc2ccc(Cl)cc2)c([N+](=O)[O-])c1
inactive: [2] 101 % of control | [1] 88 % of control | [3] 101 % of control | [4] 90 % of control | [5] 91 % of control | [6] 88 % of control

O=C(Nc1ccc([N+](=O)[O-])cc1)OCC#CC#CCOC(=O)Nc1ccc([N+](=O)[O-])cc1
inactive: dose: 50.0 mg/kg/injection, schedule: Q01DX009 (ip), vehicle: Klucel (hydroxypropylcellulose) (HPC) 104 % of control | [2] 100 % of control | [3] 86 % of control

CC(C)(C)C1CC[N-]CC1.CC(C)(C)C1CC[N-]CC1.[Cl][Pt+2]([Cl])([Cl])[Cl]
inactive: dose: 12.5 mg/kg/injection, schedule: Q01DX009 (ip), vehicle: saline 96 % of control | dose: 12.5 mg/kg/injection, schedule: Q04DX003 (ip), vehicle: saline 97 % of control | [9] 92 % of control | dose: 25.0 mg/kg/injection, schedule: Q04DX003 (ip), vehicle: saline 90 % of control | dose: 50.0 mg/kg/injection, schedule: Q04DX003 (ip), vehicle: saline 93 % of control and 99 % of control | dose: 100.0 mg/kg/injection, schedule: Q04DX003 (ip), vehicle: saline 94 % of control and 97 % of control

CCC(N)(CC)C(=O)O
inactive: [10] 102 % of control | [11] 98 % of control | [12] 95 % of control

CC(C)=CCC/C(C)=C/Cn1cc([N+](=O)[O-])ccc1=O
inactive: dose: 100.0 mg/kg/injection, schedule: Q01DX001 (ip), vehicle: saline with Tween-80 106 % of control | [13] 111 % of control | dose: 200.0 mg/kg/injection, schedule: Q01DX001 (ip), vehicle: saline with Tween-80 101 % of control | [14] 111 % of control | dose: 400.0 mg/kg/injection, schedule: Q01DX001 (ip), vehicle: saline with Tween-80 98 % of control | [15] 102 % of control

CC12C(=O)OC3CCC1CC32 (stereo not drawn)
inactive: dose: 75.0 mg/kg/injection, schedule: Q04DX003 (ip), vehicle: saline 97 % of control | dose: 150.0 mg/kg/injection, schedule: Q04DX003 (ip), vehicle: saline 94 % of control | dose: 300.0 mg/kg/injection, schedule: Q04DX003 (ip), vehicle: saline 94 % of control

O=C1C=CC2C3C=CC(CC3)C12 (stereo not drawn)
inactive: [7] 89 % of control | [8] 93 % of control

C[C@@]1(C(=O)O)CC2C=CC1C2 (stereo partly drawn)
inactive: [8] 96 % of control | dose: 200.0 mg/kg/injection, schedule: Q04DX002 (ip), vehicle: Klucel (hydroxypropylcellulose) (HPC) 96 % of control | dose: 400.0 mg/kg/injection, schedule: Q04DX002 (ip), vehicle: Klucel (hydroxypropylcellulose) (HPC) 93 % of control

CC1(C)CC(Cc2ccccc2)C(=O)O1 (stereo not drawn)
inactive: [1] 93 % of control | [4] 90 % of control | [6] 100 % of control

O=c1ccccn1Cc1ccccc1
inactive: [1] 106 % of control | [4] 117 % of control | [6] 98 % of control

CC(C)C(Sc1nc(N)nc2nc[nH]c12)C(=O)O (stereo not drawn)
inactive: [16] 98 % of control | dose: 100.0 mg/kg/injection, schedule: Q01DX009 (ip), vehicle: saline sonified 94 % of control | [1] 96 % of control | [17] 96 % of control | dose: 200.0 mg/kg/injection, schedule: Q01DX009 (ip), vehicle: saline sonified 106 % of control | [4] 100 % of control | [18] 102 % of control | dose: 400.0 mg/kg/injection, schedule: Q01DX009 (ip), vehicle: saline sonified 100 % of control | [6] 98 % of control

C1COC(C2OCCO2)C1 (stereo not drawn)
inactive: [11] 103 % of control | [12] 90 % of control | dose: 400.0 mg/kg/injection, schedule: Q01DX009 (ip), vehicle: saline 95 % of control

CC(C)(C)CNC(=S)Nc1ccccc1
inactive: dose: 9.5 mg/kg/injection, schedule: Q01DX001 (ip), vehicle: other 98 % of control | dose: 19.0 mg/kg/injection, schedule: Q01DX001 (ip), vehicle: other 102 % of control | dose: 38.0 mg/kg/injection, schedule: Q01DX001 (ip), vehicle: other 104 % of control | [19] 90 % of control

CCCNC(=O)Oc1ccc(C(=O)OCC)cc1
inactive: dose: 100.0 mg/kg/injection, schedule: Q01DX009 (ip), vehicle: saline with Tween-80 93 % of control | dose: 200.0 mg/kg/injection, schedule: Q01DX009 (ip), vehicle: saline with Tween-80 98 % of control | dose: 400.0 mg/kg/injection, schedule: Q01DX009 (ip), vehicle: saline with Tween-80 94 % of control

Cc1ccc(C(=O)C(F)(F)F)cc1
inactive: [13] 96 % of control | [14] 102 % of control

CCC(CC)(CC)OC(=O)NS(=O)(=O)c1ccc(Cl)cc1
inactive: dose: 100.0 mg/kg/injection, schedule: Q01DX009 (ip), vehicle: acetone 107 % of control | [13] 120 % of control | [14] 104 % of control | [15] 109 % of control

Cn1ncc2[nH]c(=O)n(OS(=O)(=O)c3ccccc3)c(=O)c21
inactive: dose: 50.0 mg/kg/injection, schedule: Q01DX001 (ip), vehicle: saline 100 % of control | [16] 96 % of control | [17] 96 % of control | [18] 87 % of control

CC(=O)OCCOc1cccc(C)c1
inactive: dose: 100.0 mg/kg/injection, schedule: Q04DX002 (ip), vehicle: saline 114 % of control | dose: 200.0 mg/kg/injection, schedule: Q04DX002 (ip), vehicle: saline 96 % of control | dose: 400.0 mg/kg/injection, schedule: Q04DX002 (ip), vehicle: saline 107 % of control

CCN(CC)CCN1C(=O)C(C)C=C(C)C=C1C (stereo not drawn)
inactive: dose: 9.0 mg/kg/injection, schedule: Q04DX003 (ip), vehicle: other 97 % of control | dose: 18.0 mg/kg/injection, schedule: Q04DX003 (ip), vehicle: other 92 % of control | dose: 19.0 mg/kg/injection, schedule: Q01DX009 (ip), vehicle: other 105 % of control | dose: 38.0 mg/kg/injection, schedule: Q01DX009 (ip), vehicle: other 105 % of control | [19] 100 % of control | dose: 75.0 mg/kg/injection, schedule: Q01DX009 (ip), vehicle: other 105 % of control | dose: 75.0 mg/kg/injection, schedule: Q04DX003 (ip), vehicle: other 91 % of control

CC(CCC(=O)O)Cc1ccccc1 (stereo not drawn)
inactive: [9] 101 % of control | [10] 101 % of control | [11] 86 % of control
